Measured values as given in patent US20240139167A1, “LYSOSOME-ASSOCIATED MEMBRANE PROTEIN TARGETING COMPOUNDS AND USES THEREOF” (HADASIT MEDICAL RESEARCH SERVICES AND DEVELOPMENT LTD., priority 2021, published 2024).
Entries after “also recorded” stand apart in the source; their conditions may differ.

Key:
[1] = Pharmacokinetics, tissue levels by LC-MS/MS; assay type: in vivo, mice; conditions: 250 mg/kg subcutaneous
Text: FIGS. 2A-2C include images and graphs of histopathological effects of Compound 1 and its pharmacokinetics: right panel present images of indicated tissues of sacrificed mice and stained for PG (arrows) with PAS following treatment with diastase; left panel, presents bar graphs quantifying PAS staining, based on analysis of 4 sections from each tissue in n=2 wild type, n=7 Gbe^ys/ys vehicle-treated, and n=9 Compound 1-treated mice (2A); bar graph quantifying total glycogen in the respective tissues (2B); graph of Compound 1pharmacokinetics (2C); 9 months old Gbe^ys/ys mice were SC-injected with 150 μL of Compound 1 at 250 mg/kg. Mice were sacrificed 30-, 60-, 90-, and 210-min post injection and the indicated tissues were removed, as well as 200 μL of serum drawn. […] Shown are means and SEM of results obtained from n=3 mice at each time point.
For pharmacokinetic analysis, 100 μL serum as well as brain, kidney, hind limb quad muscle, heart, liver, and spleen tissues were collected, homogenized, and extracted with acetonitrile following established guidelines. Calibration curves were made with 0, 1, 10, 100, and 1,000 ng/ml Compound 1 in 1 mg/ml solutions of 4-tert-butyl-2-(4H-1,2,4-triazol-4-yl)phenol (ChemBridge) as internal standard (IS). Tissue samples were then dissolved in 1 mg/ml IS solutions and spiked with 0-1,000 ng/ml Compound 1 to generate standard curves from which tissue levels of Compound 1 were determined. Samples were analyzed by the LC-MS/MS Sciex Triple Quad™ 5500 mass spectrometer.
Pharmacokinetic analysis is instrumental for explaining the effects of Compound 1 in-situ regardless of its innate capacity to modify polyglucosans in isolated cells. The reason for that is that timing of arrival, distribution and stability in the tissue are key determinants of the in-situ activity of any pharmacological agent. To determine the distribution and kinetic parameters of Compound 1 in different tissues, the inventors have treated Gbe^ys/ys mice with 250 mg/kg Compound 1 via subcutaneous injection, as done in the efficacy experiments. Mice were then sacrificed 0, 30-, 60-, 90-, and 210-min post administration and 100 μL serum as well as brain, kidney, hind limb skeletal muscle, heart, liver, and spleen tissues were collected, homogenized, extracted and their Compound 1 levels were analyzed by liquid chromatography tandem mass spectrometry (LC-MS/MS). The differential effects of Compound 1 on glycogen and polyglucosan content in the different tissues match its differential distribution and dwell time in each respective tissue. […] However, those levels persist up until 60 minutes post injection, which might account for the Compound 1-mediated reduction in polyglucosan, and glycogen content observed in these tissues. […] Based on the sampling times used, time to C. was 30 min for all the tissues studied indicating similar rate of absorption to all these tissues. The highest C. is observed in liver and kidney matching their well-established rapid perfusion.

APBD primary fibroblasts = experiment: Autophagic flux (LC3II/LC3I with lysosomal inhibitors, p62); assay type: cell-based, human
Text: (§1) FIGS. 6A-6E include bar graphs of autophagic flux, determined by the extent of lysosomal inhibitors-dependent increase in the ratio of lipidated to non-lipidated LC3 (LC3II/LC3I) (6A); representative TEM images of liver tissue from 9.5 month old Gbe^ys/ys mice treated with Compound 11, or 5% DMSO vehicle (6B), G: Glycogen (alpha particles) and polyglucosan (structures with variable electron densities), L: Lysosomes, M: Mitochondria; right panel: lysosomal glycogen stain was quantified by ImageJ “count particle” tool; micrograph of LAMP1 knocked down and control APBD primary skin fibroblasts treated or not with Compound 1 and lysosomal inhibitors (LI) and quantification of 3 experiments and results of Student's t-tests. *, p<0.1; **, p<0.05; ***, p<0.01 (6C); graphs of lysosomal pH changes determined in APBD primary fibroblasts transduced with lentiviruses encoding for GFP or GFP-shLAMP1 and treated or not with Compound 1 for 24 h and confocal microscope images of cells treated with Lysosensor and stained for PAS (6D); and bar graph of ATP production rate assay in LAMP1-KD and GFP (Control) cells treated for 24 h (chronic) or on assay (acute) with Compound 1 (6E).

[2] = system: LAMP1-KD and GFP control APBD primary fibroblasts; experiment: LAMP1 knockdown: autophagic flux, lysosomal pH (Lysosensor), PAS glycogen; assay type: cell-based, human
Text: as §1
To determine the functional importance of the interaction between Compound 1 and LAMP1, the inventors knocked down the latter using a lentiviral vector carrying GFP tagged shRNA against LAMP1. […] Furthermore, to test whether LAMP1-KD and Compound 1 enhanced autophagic flux by improving lysosomal function, the inventors quantified lysosomal acidification using the pH ratiometric dye Lysosensor™, which quantifies pH based on the yellow/blue emission ratio. […] The inventors show by flow cytometry (FIG. 6D, upper panel) the overall cellular acidification as an increase in 375 nm-excited yellow/blue emission, and by confocal microscopy that this acidification is associated with brighter yellow fluorescence in lysosomes (FIG. 6D, middle panel).

PD primary fibroblasts = experiment: PAS staining of glycogen in Pompe disease fibroblasts; assay type: cell-based, human; conditions: 24 h, 50 μM; listed as 144DG11
Text: Yellow, Calcein used for cell segmentation, Blue, DAPI nuclear stain.

[3] = system: primary human non-small-cell lung cancer (NSCLC) cells; experiment: LC3, p62 and PAS staining of lung cancer cells; assay type: cell-based
Procedure: FIGS. 20A-20B include fluorescent micrographs showing primary non-small cell-lung cancer. Cells were treated and stained for the autophagic substrates LC3 (20A) and p62 (20B) as in 19A-19B.
NAD+ and NADH are key precursors for the electron transfer chain, TCA cycle, glycolysis, amino acid synthesis, fatty acid synthesis, and nucleotide synthesis. The NAD+/NADH ratio reports the extent of overall catabolism and the balance between glycolysis and OxPhos. The increase in the NAD+/NADH ratio means acceleration of electron flow in the mitochondrial electron transport chain (note, not mitochondrial ATP production) and of glycolysis to better manage metabolic demands. Furthermore, Sirt1 induction, often associated with increased NAD+/NADH ratio, is a well-documented and innovative anti-aging, calorie restriction-mimic and anti-cancer therapeutic strategy (see for example Hyun et al., (2020)). Thus, the results in Gsd1a cells (FIG. 21), showing induction of the NAD+/NADH ratio, as well as Sirt1, indicate that 144DG11 is a promising therapy for a plethora of different metabolic disorders, aging-related complications, and cancer.

## COCCN(Cc1sccc1C)C(=O)c1cc(C)nc(O)c1 [Compound 1]
[1]
  C. in liver and kidney, rank among tissues: highest
  C. in skeletal quadriceps muscle, rank among tissues: lowest
  accumulation in muscle: negligible accumulation
  levels in heart and brain: intermediate levels
  persistence of levels in heart and brain post injection: ≤ 60 min
[1]; all the tissues studied
  time to C.: 30 min
[1]; mouse, liver, sc, Gbe^ys/ys mice
  half-life: > 3 h
APBD primary fibroblasts
  autophagic flux (sensitivity of LC3ii/LC3i ratio to lysosomal inhibitors): increased autophagic flux
  level of the autophagy substrate p62: lowering the level of the autophagy substrate p62
[2]; 24 h serum starvation
  autophagic flux in LAMP1 knocked down cells: further enhanced
[2]; GFP and LAMP1-KD APBD cells, 24 h
  lysosomal pH (Lysosensor): led to lysosomal acidification
[2]; GFP control and shLAMP1-GFP transduced
  reduction of cellular glycogen levels by LAMP knockdown (PAS): slightly enhanced
PD primary fibroblasts
  glycogen (PAS staining): reduce glycogen; also recorded: significantly lowered PAS staining
[3]
  autophagy (LC3, p62): induced autophagy
  glycogen levels: did not lower glycogen levels
